Several values for one entry are separate records, joined by “and”; a condition that tells them apart may be missing. Equal entries are not always repeated. Toxic doses and inconclusive results are not listed.
System: L1210 leukemia ip in BDF1 mice, survival T/C
Test: NCI In Vivo Anticancer Drug Screen. Data for tumor model L1210 Leukemia (intraperitoneal) in B6D2F1 (BDF1) mice
Settings: higher = longer survival
Procedure, shortened: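 Tumor was transplanted into mice, which were then dosed with test compound or vehicle alone. Survival was recorded for each group, and the treated figure was expressed relative to the control figure.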

[1] = endpoint: mean survival time, dose: 5.0 mg/kg/injection, schedule: Q01DX009 (ip), vehicle: saline
[2] = endpoint: mean survival time, dose: 20.0 mg/kg/injection, schedule: Q01DX009 (ip), vehicle: saline
[3] = endpoint: mean survival time, dose: 100.0 mg/kg/injection, schedule: Q01DX001 (ip), vehicle: saline
[4] = endpoint: mean survival time, dose: 100.0 mg/kg/injection, schedule: Q01DX001 (ip), vehicle: saline with Tween-80
[5] = endpoint: mean survival time, dose: 200.0 mg/kg/injection, schedule: Q01DX009 (ip), vehicle: Klucel (hydroxypropylcellulose) (HPC)

In the case of `Cn1cnc([N+](=O)[O-])c1Sc1nc(N)nc2nc[nH]c12`, the T/C (endpoint: mean survival time, dose: 0.16 mg/kg/injection, schedule: Q#A X030 (oral), vehicle: saline) was 110 % of control, the T/C (endpoint: mean survival time, dose: 0.31 mg/kg/injection, schedule: Q#A X030 (oral), vehicle: saline) was 106 % of control and the T/C (endpoint: mean survival time, dose: 0.62 mg/kg/injection, schedule: Q#A X030 (oral), vehicle: saline) was 108 % of control. For the same molecule, the T/C (endpoint: mean survival time, dose: 0.9 mg/kg/injection, schedule: Q03DX005 (oral), vehicle: saline) was 101 % of control, the T/C (endpoint: mean survival time, dose: 1.2 mg/kg/injection, schedule: Q01DX006 (iv), vehicle: saline) was 105 % of control and the T/C (endpoint: mean survival time, dose: 1.2 mg/kg/injection, schedule: Q01DX Z (im), vehicle: saline) was 105 % of control. The T/C (endpoint: mean survival time, dose: 1.2 mg/kg/injection, schedule: Q01DX Z (ip), vehicle: saline) was 168 % of control, the T/C (endpoint: mean survival time, dose: 1.2 mg/kg/injection, schedule: Q01DX Z (sc), vehicle: saline) was 166 % of control and the T/C (endpoint: mean survival time, dose: 1.25 mg/kg/injection, schedule: Q01DX010 (ip), vehicle: saline) was 112 % of control and 120 % of control. For the same molecule, the T/C (endpoint: mean survival time, dose: 1.25 mg/kg/injection, schedule: Q#A X030 (oral), vehicle: saline) was 113 % of control, the T/C (endpoint: mean survival time, dose: 1.6 mg/kg/injection, schedule: Q01DX001 (oral), vehicle: saline) was 110 % of control and the T/C (endpoint: mean survival time, dose: 1.9 mg/kg/injection, schedule: Q03DX005 (oral), vehicle: saline) was 106 % of control. For the same molecule, the T/C (endpoint: mean survival time, dose: 2.1 mg/kg/injection, schedule: Q07DX003 (oral), vehicle: saline) was 102 % of control, the T/C (endpoint: mean survival time, dose: 2.5 mg/kg/injection, schedule: Q01DX006 (iv), vehicle: saline) was 109 % of control and the T/C (endpoint: mean survival time, dose: 2.5 mg/kg/injection, schedule: Q01DX009 (ip), vehicle: saline) was 151 % of control and 159 % of control. For the same molecule, the T/C (endpoint: mean survival time, dose: 2.5 mg/kg/injection, schedule: Q01DX010 (ip), vehicle: saline) was 154 % of control and 155 % of control, the T/C (endpoint: mean survival time, dose: 2.5 mg/kg/injection, schedule: Q01DX Z (im), vehicle: saline) was 100 % of control and the T/C (endpoint: mean survival time, dose: 2.5 mg/kg/injection, schedule: Q01DX Z (ip), vehicle: saline) was 150 % of control. For the same molecule, the T/C (endpoint: mean survival time, dose: 3.13 mg/kg/injection, schedule: Q01DX001 (oral), vehicle: saline) was 104 % of control and 108 % of control, the T/C (endpoint: mean survival time, dose: 3.8 mg/kg/injection, schedule: Q03DX005 (oral), vehicle: saline) was 104 % of control and the T/C (endpoint: mean survival time, dose: 4.3 mg/kg/injection, schedule: Q07DX003 (oral), vehicle: saline) was 106 % of control. The T/C [1] was 156 % of control, the T/C (endpoint: mean survival time, dose: 5.0 mg/kg/injection, schedule: Q01DX010 (ip), vehicle: saline) was 161 % of control and 163 % of control and the T/C (endpoint: mean survival time, dose: 5.0 mg/kg/injection, schedule: Q01DX Z (ip), vehicle: saline) was 166 % of control. The T/C (endpoint: mean survival time, dose: 5.0 mg/kg/injection, schedule: Q01DX Z (oral), vehicle: saline) was 116 % of control, the T/C (endpoint: mean survival time, dose: 5.0 mg/kg/injection, schedule: Q01DX Z (sc), vehicle: saline) was 209 % of control and the T/C (endpoint: mean survival time, dose: 6.0 mg/kg/injection, schedule: Q01DX001 (ip), vehicle: saline) was 109 % of control and 113 % of control. The T/C (endpoint: mean survival time, dose: 6.25 mg/kg/injection, schedule: Q01DX001 (oral), vehicle: saline) was 102 % of control, the T/C (endpoint: mean survival time, dose: 7.5 mg/kg/injection, schedule: Q03DX005 (oral), vehicle: saline) was 112 % of control and the T/C (endpoint: mean survival time, dose: 8.7 mg/kg/injection, schedule: Q07DX003 (oral), vehicle: saline) was 113 % of control. The T/C (endpoint: mean survival time, dose: 10.0 mg/kg/injection, schedule: Q01DX010 (ip), vehicle: saline) was 152 % of control, the T/C (endpoint: mean survival time, dose: 10.0 mg/kg/injection, schedule: Q01DX Z (oral), vehicle: saline) was 123 % of control and the T/C (endpoint: mean survival time, dose: 12.5 mg/kg/injection, schedule: Q01DX001 (oral), vehicle: saline) was 110 % of control. The T/C (endpoint: mean survival time, dose: 17.5 mg/kg/injection, schedule: Q07DX003 (oral), vehicle: saline) was 122 % of control, the T/C (endpoint: mean survival time, dose: 20.0 mg/kg/injection, schedule: Q01DX006 (iv), vehicle: saline) was 153 % of control and the T/C [2] was 114 % of control and 120 % of control. For the same molecule, the T/C (endpoint: mean survival time, dose: 22.0 mg/kg/injection, schedule: Q01DX001 (ip), vehicle: carboxymethylcellulose (CMC)) was 166 % of control, the T/C (endpoint: mean survival time, dose: 25.0 mg/kg/injection, schedule: Q01DX001 (ip), vehicle: saline) was 116 % of control and 239 % of control and the T/C (endpoint: mean survival time, dose: 35.0 mg/kg/injection, schedule: Q01DX001 (ip), vehicle: carboxymethylcellulose (CMC)) was 174 % of control. For the same molecule, the T/C (endpoint: mean survival time, dose: 40.0 mg/kg/injection, schedule: Q01DX Z (oral), vehicle: saline) was 174 % of control, the T/C (endpoint: mean survival time, dose: 52.0 mg/kg/injection, schedule: Q01DX001 (ip), vehicle: carboxymethylcellulose (CMC)) was 180 % of control and the T/C (endpoint: mean survival time, dose: 78.0 mg/kg/injection, schedule: Q01DX001 (ip), vehicle: carboxymethylcellulose (CMC)) was 196 % of control. The T/C (endpoint: mean survival time, dose: 80.0 mg/kg/injection, schedule: Q01DX Z (oral), vehicle: saline) was 163 % of control, the T/C [3] was 200 % of control and 254 % of control and the T/C (endpoint: mean survival time, dose: 160.0 mg/kg/injection, schedule: Q01DX Z (im), vehicle: saline) was 96 % of control. The T/C (endpoint: mean survival time, dose: 160.0 mg/kg/injection, schedule: Q01DX Z (oral), vehicle: saline) was 111 % of control, the T/C (endpoint: mean survival time, dose: 320.0 mg/kg/injection, schedule: Q01DX Z (oral), vehicle: saline) was 91 % of control and the T/C (endpoint: mean survival time, dose: 640.0 mg/kg/injection, schedule: Q01DX Z (oral), vehicle: saline) was 86 % of control. The T/C (endpoint: mean survival time, dose: 960.0 mg/kg/injection, schedule: Q03DX005 (oral), vehicle: saline) was 106 % of control, the T/C (endpoint: mean survival time, dose: 1920.0 mg/kg/injection, schedule: Q03DX005 (oral), vehicle: saline) was 100 % of control and the T/C (endpoint: median survival time, dose: 2.5 mg/kg/injection, schedule: Q01DX009 (ip), vehicle: saline) was 150 % of control. The T/C (endpoint: median survival time, dose: 10.0 mg/kg/injection, schedule: Q01DX009 (ip), vehicle: saline) was 115 % of control and the T/C (endpoint: median survival time, dose: 20.0 mg/kg/injection, schedule: Q01DX009 (ip), vehicle: saline) was 100 % of control and 118 % of control.
In the case of `CC(=O)Nc1c(C)cccc1[N+](=O)[O-]`, the T/C [4] was 94 % of control.
With `COC1N(C2CC(O)C(CO)O2)C(=O)NC(=O)C1(F)Br` (stereo not given) the T/C [1] was 123 % of control, the T/C (endpoint: mean survival time, dose: 10.0 mg/kg/injection, schedule: Q01DX009 (ip), vehicle: saline) was 112 % of control and the T/C [2] was 122 % of control. For the same molecule, the T/C (endpoint: mean survival time, dose: 20.0 mg/kg/injection, schedule: Q04DX003 (ip), vehicle: saline) was 105 % of control, the T/C (endpoint: mean survival time, dose: 40.0 mg/kg/injection, schedule: Q04DX003 (ip), vehicle: saline) was 102 % of control and the T/C (endpoint: mean survival time, dose: 50.0 mg/kg/injection, schedule: Q01DX009 (ip), vehicle: saline) was 103 % of control. The T/C (endpoint: mean survival time, dose: 80.0 mg/kg/injection, schedule: Q04DX003 (ip), vehicle: saline) was 117 % of control, the T/C (endpoint: mean survival time, dose: 100.0 mg/kg/injection, schedule: Q01DX009 (ip), vehicle: saline) was 98 % of control and the T/C (endpoint: mean survival time, dose: 160.0 mg/kg/injection, schedule: Q04DX003 (ip), vehicle: saline) was 108 % of control. The T/C (endpoint: mean survival time, dose: 200.0 mg/kg/injection, schedule: Q01DX009 (ip), vehicle: saline) was 102 % of control and the T/C (endpoint: mean survival time, dose: 400.0 mg/kg/injection, schedule: Q01DX009 (ip), vehicle: saline) was 94 % of control.
In the case of `O=C(c1cccs1)c1cscc1C(=O)c1cccs1`, the T/C [4] was 95 % of control, the T/C (endpoint: mean survival time, dose: 200.0 mg/kg/injection, schedule: Q01DX001 (ip), vehicle: saline with Tween-80) was 95 % of control and the T/C (endpoint: mean survival time, dose: 400.0 mg/kg/injection, schedule: Q01DX001 (ip), vehicle: saline with Tween-80) was 92 % of control.
`S=C1SCN(C2CCCCC2)CN1C1CCCCC1` was tested, and the T/C (endpoint: mean survival time, dose: 100.0 mg/kg/injection, schedule: Q01DX009 (ip), vehicle: Klucel (hydroxypropylcellulose) (HPC)) was 94 % of control, the T/C (endpoint: mean survival time, dose: 100.0 mg/kg/injection, schedule: Q04DX003 (ip), vehicle: Klucel (hydroxypropylcellulose) (HPC)) was 91 % of control and the T/C [5] was 95 % of control. For the same molecule, the T/C (endpoint: mean survival time, dose: 200.0 mg/kg/injection, schedule: Q04DX003 (ip), vehicle: Klucel (hydroxypropylcellulose) (HPC)) was 100 % of control, the T/C (endpoint: mean survival time, dose: 400.0 mg/kg/injection, schedule: Q01DX009 (ip), vehicle: Klucel (hydroxypropylcellulose) (HPC)) was 94 % of control and the T/C (endpoint: mean survival time, dose: 400.0 mg/kg/injection, schedule: Q04DX003 (ip), vehicle: Klucel (hydroxypropylcellulose) (HPC)) was 100 % of control.
In the case of `CC(=O)OCCc1nnnn1C`, the T/C [3] was 108 % of control, the T/C (endpoint: mean survival time, dose: 200.0 mg/kg/injection, schedule: Q01DX001 (ip), vehicle: saline) was 104 % of control and the T/C (endpoint: mean survival time, dose: 400.0 mg/kg/injection, schedule: Q01DX001 (ip), vehicle: saline) was 103 % of control.
With `CCCCN(C#N)CC(C)(C)[N+](=O)[O-]` the T/C (endpoint: mean survival time, dose: 111.0 mg/kg/injection, schedule: Q01DX Z (ip), vehicle: methylcellulose (MC)) was 103 % of control, the T/C (endpoint: mean survival time, dose: 166.0 mg/kg/injection, schedule: Q01DX Z (ip), vehicle: methylcellulose (MC)) was 97 % of control and the T/C (endpoint: mean survival time, dose: 250.0 mg/kg/injection, schedule: Q01DX Z (ip), vehicle: methylcellulose (MC)) was 108 % of control.
`CCCCc1c(F)cccc1C(=O)O` was tested, and the T/C (endpoint: mean survival time, dose: 12.5 mg/kg/injection, schedule: Q04DX003 (ip), vehicle: saline) was 101 % of control, the T/C (endpoint: mean survival time, dose: 25.0 mg/kg/injection, schedule: Q04DX003 (ip), vehicle: saline) was 108 % of control and the T/C (endpoint: mean survival time, dose: 50.0 mg/kg/injection, schedule: Q04DX003 (ip), vehicle: saline) was 87 % of control.
`Cc1n(CCBr)c([N+](=O)[O-])c[n+]1C1N=C(c2ccccc2Cl)c2cc(Cl)ccc2NC1=O` (stereo not given) was tested, and the T/C (endpoint: mean survival time, dose: 50.0 mg/kg/injection, schedule: Q01DX009 (ip), vehicle: Klucel (hydroxypropylcellulose) (HPC)) was 86 % of control and the T/C [5] was 89 % of control.

Source: PubChem BioAssay AID248 (DTP/NCI, 2004)
